Values quoted from earlier work as cited in patent US20190201327A1 (AMPERSAND BIOPHARMACEUTICALS, INC., priority 2017, published 2019).

Test system: neovascularization

CC1=C(CO)C(=O)O[C@@H]([C@@H](C)[C@H]2CC[C@H]3[C@@H]4C[C@H]5O[C@]56[C@@H](O)C(N=[N+]=[N-])CC(=O)[C@]6(C)[C@H]4CC[C@]23C)C1 (stereo partly shown) [3-azido WFA, 3-azido Withaferin A]
neovascularization in vivo: abrogated neovascularization in vivo in a dose dependent manner
